Reference: US7244712B2, “Aminoglycoside antibiotics and methods of using same” (priority 2004, dated 2007)
Values after ≈ are worked out from the molar mass of the structure shown. “Also recorded” adds a separate entry of the source.

Key:
E. coli (ATCC 25922) [1] = assay: Bactericidal activity (bactericide index); assay type: cell-based; settings: 3 h incubation, FIG. 8
Description: The bactericidal activity of each antibiotic was investigated at concentrations of 0.5-4×MIC in medium E. coli (ATCC 25922) inoculum was added to 0.5 mL medium 2 to OD 600 ˜0.1 together with different antibiotic concentrations. The samples were incubated at 37° C. for 3 hrs, and the bacteria were collected by centrifugation. The bacterial pellets were washed with 0.5 mL of medium 2 and were plated on 1.5% medium 2 agar in 100 mm Petri dishes. The plates were incubated for 1-2 days at 37° C. and mean log 10 change in viable count was calculated and plotted vs drug concentration.

[2] = test system: E. coli (ATCC 25922) transformed with the plasmid pMM, bearing the APH(3')IIa gene; assay: Antibiotic activity disk assay, kanamycin/neomycin resistant E. coli; assay type: cell-based; settings: FIG. 7B
Description: (§1) E. coli (ATCC 25922) and P. aeruginosa (ATCC 27853) (BD Bioscience) were inoculated in 3 mL of the medium 2 (U.S. Pharmacopia), containing 6 g peptone, 3 g yeast extract and 1.5 g beef extract per 1 L, pH 6.6, and were grown in a shaker for 6 h at 37° C. until an OD 560=0.6-0.8 was reached.
For the antibiotic disk assay, […] of each bacterial inoculum was mixed with 10 mL of melted agar (1.5% medium 2 agar, BD Bioscience) at 50-55° C. and poured onto 100 mm Petri dishes. Sterile Whatmann 3 MM 5 mm paper disks were soaked with antibiotic solutions and allowed to dry. The disks were positioned evenly on the surface of bacterial-inoculated solid agar and the plates were incubated at 37° C. for 1-2 days. MIC and bactericide index measurements.

70S ribosome = assay: Fluorescence anisotropy binding to 70S ribosomes; settings: competition with CRP, E. coli ribosomes; read-out: Dissociation constant (KD) with 70S ribosome
Description: (§2) After establishing the lack of stereospecificity in the binding of aminoglycosides to the A-site RNA constructs (FIG. 9A-C) where the binding affinity, KD, is about 0.1 μM to about 100 μM, the stereospecificity of aminoglycoside binding to intact ribosomes was determined. Both yeast and E. coli ribosomes were prepared and aminoglycoside binding was measured using fluorescence anisotropy methods. For example, fluorescence anisotropy methods recited in Wang, Y., and Rando, R. R. Chem. Biol. (1995) 2, 281-290; and Wang, Y., Hamasaki, K., and Rando, R. R. Biochemistry (1997) 36,768-779. CRP was used as the binding probe. […] Binding data reported herein for aminoglycoside compounds with eukaryotic yeast ribosomes are similar to binding data for said aminoglycoside compounds with ribosoimes in bacteria and with eukaryotic A-site rRNA constructs.
(§3) 5-Carboxytetramethylrhodamine-labeled paromomycin (CRP) and tobramycin (CRT) concentrations were determined spectroscopically at 550 nm using a molar extinction coefficient of 6.00×10 4 M −1 cm −1. Fluorescence anisotropy measurements were performed on a Perkin-Elmer LS-50B luminescence spectrometer equipped with a thermostat accurate to ±0.1° C. as indicated previously (Wang, Y., Hamasaki, K., & Rando, R. R. (1997) Biochemistry 36, 768-779). The tracer solution was excited at 550 nm and monitored at 580 nm. The integration time was 5 s. For every point, 6 measurements were taken, and their average values were used for calculation. Measurements were carried out in a buffer solution containing 150 mM NaCl, 5 mM KCl, 1 mM CaCl2, 1 mM MgCl2, and 20 mM HEPES (pH 7.5). Prior to measurements, RNA constructs were renatured by incubating in binding buffer {150 mM NaCl, 5 mM KCl, 1 mM CaCl2, 1 mM MgCl2, and 20 mM HEPES (pH 7.5)} for 3 minutes at 90° C. followed by slow cooling to 25° C.
(§4) Equation 1 was used for the determination of the dissociation constant (Kd) for the interactions between RNA or ribosome and CRP. A=A0+DA{(RNA)0+(CRP)0+Kd−({(RNA)0+(CRP)0+Kd}^2−4(RNA)0(CRP)0)½}/2 where A and A0 are the fluorescence anisotropy of CRP in the presence and absence of RNA, respectively, and DA is the difference between the fluorescence anisotropy of CRP in the presence of an extrapolated infinite concentration of RNA minus the fluorescence anisotropy in the absence of RNA. (RNA)0 and (CRP)0 are the initial concentrations of RNA and CRP, respectively.
(§5) Equation 2 is used for the calculation of the KD values in the competition binding assay. (aminoglycoside)0={KD(A−−A)/Kd(A−A0)+1}{(RNA)0−Kd(A−A0)/(A−−A)−(CRP)0(A−A0)/(A−−A)} where KD is the dissociation constant between the RNA and the aminoglycosides; (aminoglycoside)0 is the initial concentration of the aminoglycosides; AL is anisotropy of completely bound tracer. Both Kd and KD were determined by non-linear curve fitting using the equations described above, and are presented as mean values of three independent measurements.
The purification of E. coli (E600) 70S ribosomes was carried out according to the published procedure (Lazaro, E., van den Broek, L. A. G. M., Felix, A. S., Ottenheijm, H. C. J., Ballesta, J. P. G. (1991) Biochemistry 30, 9642-9648). E. coli MRE600 were grown for 12 h in 6L of LB medium (10 g trypton, 5 g yeast extract, 5 g NaCl per 1 L, pH 7.0) at 37° C. Crude ribosomes were precipitated from clarified supernatant by 4 h centrifugation at 25,000 rpm in Beckman SW 28 rotor at 4° C. The ribosome pellets were collected in 5 mL of buffer BR1, containing 10 mM HEPES, pH 7.5, 500 mM ammonium acetate, 100 mM magnesium chloride and 2.5 mM DTT. The ribosome suspension was centrifuged for 20 min at 15000 rpm to be clarified. The clarified sample was loaded over two layers of 20% and 40% sucrose in buffer BR1 and centrifuged for 18 hr at 19000 rpm in Beckman SW28 rotor at 4° C. […]

[3] = test system: P. aeruginosa (ATCC 27853); assay: MIC, P. aeruginosa; assay type: cell-based; settings: growth inhibition greater than 90%
Description: (§6) Minimal inhibitory concentrations (MIC) were measured according to the published method (Greenberg, W. A., Priestley, E. S., Sears, P. S., Alper, P. B., Rosenbohm, C., Hendrix, M., Hung, S.-C., & Wong, C.-H. (1999) J. Am. Chem. Soc. 121, 6527-6541). E. coli (ATCC 25922) (both wild type and pMM-transformed) and P. aeruginosa (ATCC 27853) were grown in medium 2 to an optical density OD 600 of 0.6-0.8. The inoculi were diluted to OD 600 ˜0.1 in medium 2 and 1 mL of the culture was placed in 13 mL test tubes. The desired concentrations of antibiotic were added from stock solutions. […] The absorbance at 600 nm of each sample was read and MIC was taken as the lowest antibiotic concentration inhibiting bacterial growth by greater than 90%.

[4] = test system: E. coli S30 extract, containing 70S ribosomes; assay: In vitro protein translation (CAT mRNA, 35S methionine incorporation); assay type: biochemical; settings: quantitation of gel bands, read-out: IC50, concentration producing 50% inhibition of translation
Description: Protein translation was performed from chloramphenicol acetyl transferase (CAT) mRNA. […] A commercial E. coli ribosomal suspension was supplemented with an E. coli extract containing the required elements for translation. These include translation factors, tRNAs, and aminoacyl tRNA synthases. Plasmid, T7 RNA polymerase and amino acids were added to the reaction mixture, and both transcription and translation steps were performed in the same vial. The effects of the aminoglycosides on the translation process were evaluated by measuring the incorporation of ^35S methionine in the translated chloramphenicol acetyl transferase protein.
In vitro translation was performed by using PROTEINscript™-PRO (Ambion) kit. […] Reaction mixtures contained appropriate concentrations of antibiotic (neomycin B, D- and L-neamine). The protein was translated from CAT mRNA, transcribed from control DNA template containing CAT gene under control of the T7 promotor. The product, ˜25 kDa chloramphenicol acetyl transferase, was labeled during translation with 1 μCi ^35S methionine (New England Nuclear) per reaction (no cold methionine was added).
Following the translation, the samples were analyzed by electrophoresis on 4-20% SDS mini-gels (Invitrogen) for 1.5 h at 120V. Gels were fixed with 40% methanol/10% acetic acid and exposed to Molecular Dynamics phosphoimager plates, which were read on a Personal FX phosphoimager (Bio-Rad) and quantitated using QuantityOne™ software.

[5] = test system: E. coli (ATCC 25922) transformed with pMM plasmid bearing APH(3')IIa; assay: MIC, kanamycin/neomycin resistant E. coli; assay type: cell-based; settings: growth inhibition greater than 90%
Description: as §1, §6

E. coli (ATCC 25922) [6] = assay: MIC, wild type E. coli; assay type: cell-based; settings: growth inhibition greater than 90%
Description: as §6

80S ribosome = assay: Fluorescence anisotropy binding to 80S ribosomes; parameters: species or system yeast (S. cerevisiae); settings: competition with CRP, yeast ribosomes; read-out: Dissociation constant (KD) with 80S ribosome
Description: as §2, §3, §4, §5
The purification of yeast 80S ribosomes from S. cerevisiae strain YSB 758 was carried out according to the published procedure (Verschoor, A., Warner, J. R., Srivastava, S., Grassucci, R. A., & Frank, J. (1997) Nucl. Acid Res. 26, 655-661). S. cerevisiea YSB 758 were grown for 12 hrs at 30° C. in 2L of YPD medium, containing: 20 g bacto peptone, 20 g glucose, 10 g yeast extract and 0.15 g tryptophan per 1 L, pH 7.0. The cells were lysed by 5-10 cycles of 1 min vigorous shaking with glass beads with a vortex, followed by cooling on ice. Clarified cell extract (about 9 mL total, used in 6 portions in 1.5 mL aliqouts) was carefully loaded on top of 2 mL of a cushion, composed of 10% sucrose and 5% ammonium sulfate dissolved in buffer YR1 (20 mM HEPES pH=7.4, 16 mM magnesium chloride, 100 mM potassium chloride, 5 mM DTT, and 0.5 mM EDTA). The ribosomes were collected by centrifugation in Beckman TL100.3 rotor at 75000 rpm for 3 h. The supernatants were carefully discarded and ribosomes were collected in buffer YR1. […]

Question: Which results are given for `NCC1OC(OC2C(N)CC(N)C(O)C2O)C(N)C(O)C1O` [D-Neamine]?
Answer: Concentration at which bactericidal effect begins (E. coli (ATCC 25922) [1]): 75 µM; Antibiotic activity in disk assay, kanamycin/neomycin resistant E. coli [2]: selective resistance towards D-neamine; also recorded: essentially abolished; Kd (70S ribosome): 5.45 ± 0.68 µM; Minimal inhibitory concentration (MIC), P. aeruginosa [3]: 500 µM (≈ 161 µg/mL); IC50 [4]: 38 µM; Minimal inhibitory concentration (MIC), E. coli kan/neo resistant [5]: >6400 µM; Minimal inhibitory concentration (MIC), E. coli (E. coli (ATCC 25922) [6]): 150 µM (≈ 48.4 µg/mL); Kd (80S ribosome): 1.14 ± 0.25 µM
